# Reference: patent US20110097264A1, “RADIOLABELING METHOD USING MULTIVALENT GLYCOLIGANDS AS HEPATIC RECEPTOR IMAGING AGENT” (Institute of Nuclear Energy Research Atomic Energy Council, …, priority 2009, published 2011)
# Target: T1, ASGPR (Mus musculus, UniProt P24721+P34927)
# T1 construct: host or cells: murine hepatocytes (primary, plated)
# T1 sequence (P34927 1-284): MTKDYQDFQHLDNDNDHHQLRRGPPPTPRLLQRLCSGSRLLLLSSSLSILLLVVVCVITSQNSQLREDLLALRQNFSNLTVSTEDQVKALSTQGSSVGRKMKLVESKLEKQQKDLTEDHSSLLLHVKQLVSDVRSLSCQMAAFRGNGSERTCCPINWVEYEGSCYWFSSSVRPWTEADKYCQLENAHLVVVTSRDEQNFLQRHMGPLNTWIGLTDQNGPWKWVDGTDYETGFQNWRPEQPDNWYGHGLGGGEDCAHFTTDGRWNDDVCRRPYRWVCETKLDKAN
# T1 sequence (P24721 1-301): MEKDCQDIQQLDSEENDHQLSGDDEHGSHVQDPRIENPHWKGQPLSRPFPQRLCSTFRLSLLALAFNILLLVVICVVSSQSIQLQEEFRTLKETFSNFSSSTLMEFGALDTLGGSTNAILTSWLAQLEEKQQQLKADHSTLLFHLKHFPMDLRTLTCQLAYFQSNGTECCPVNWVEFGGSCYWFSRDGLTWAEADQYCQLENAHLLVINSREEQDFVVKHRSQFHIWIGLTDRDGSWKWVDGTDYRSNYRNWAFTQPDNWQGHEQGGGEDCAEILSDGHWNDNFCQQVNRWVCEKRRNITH
# Test: Binding strength of saccharide chain peptide and murine hepatocyte (competition with Eu-ASOR, time-resolved fluorescence)
# Conditions: for IC50: murine hepatocyte, Eu-ASOR 10 nM, 5 mM calcium chloride, 1 hr
# Description: With Eu-asialo-orosomucoid (Eu-ASOR) as reference material, the binding strength of saccharide chain peptide and murine hepatocyte is determined by comparing whether the binding degree of saccharide chain peptides, such as DCM-Lys(ah-GalNAc)3, DCM-Lys(Gah-GalNAc)3, DCM-Lys(ah-Lac)3, AHA-Asp[DCM-Lys(ah-Lac)3]2 with murine hepatocyte is higher than that of Eu-ASOR or not, in which the binding degree is expressed by IC50 (concentration of 50% inhibition), and the lower the IC50 is, the higher the binding degree is. The murine hepatocyte (from Lonza Biotechnology Company, Maryland) is plated in a 24-well plate in advance, and the reaction occurs in each well, into which (i) Eu-ASOR 10 nM (ii) hepatocyte basic medium with 5 mM calcium chloride, and (iii) five different concentrations of saccharide chain peptide of 1 uM-0.8 nM are added. After culturing under shaking for 1 hr, the substance that has not been bound to hepatocyte is removed by washing with the hepatocyte basic medium containing calcium chloride. Time-resolved fluorescence spectroscopy is preformed, that is, an enhancement solution (15
# uM β-naphthoyl trifluoroacetone, 50 uM tri-n-octyl-phosphine oxide, 0.1 M potassium hydrogen phthalate, 0.1% Triton X-100 in 0.1 M acetic acid, pH 3.2) is added. The enhancement solution reacts with Eu^3+ to form a Eu chelate, which can emit a light of 615 nm when being excited at 340 nm. With the logarithm of the concentration of saccharide chain peptide as X axis, the emitted fluorescence value as Y axis, the fluorescence value without adding glycopeptide being set as 100%, the IC50 of each saccharide chain peptide can be calculated accordingly.
IC50,SMILES,"binding with ASGPR relative to YEE or YDD (compared with YEE or YDD, from Table 1)"
10 nM,"NCCCCCC(=O)N[C@@H](CC(=O)NCCCC[C@@H](C(=O)NCCCCCCOC1O[C@H](CO)[C@@H](O[C@@H]2O[C@H](CO)[C@H](O)[C@H](O)[C@H]2O)[C@H](O)[C@H]1O)N(CC(=O)NCCCCCCOC1O[C@H](CO)[C@@H](O[C@@H]2O[C@H](CO)[C@H](O)[C@H](O)[C@H]2O)[C@H](O)[C@H]1O)CC(=O)NCCCCCCOC1O[C@H](CO)[C@@H](O[C@@H]2O[C@H](CO)[C@H](O)[C@H](O)[C@H]2O)[C@H](O)[C@H]1O)C(=O)NCCCC[C@@H](C(=O)NCCCCCCOC1O[C@H](CO)[C@@H](O[C@@H]2O[C@H](CO)[C@H](O)[C@H](O)[C@H]2O)[C@H](O)[C@H]1O)N(CC(=O)NCCCCCCOC1O[C@H](CO)[C@@H](O[C@@H]2O[C@H](CO)[C@H](O)[C@H](O)[C@H]2O)[C@H](O)[C@H]1O)CC(=O)NCCCCCCOC1O[C@H](CO)[C@@H](O[C@@H]2O[C@H](CO)[C@H](O)[C@H](O)[C@H]2O)[C@H](O)[C@H]1O (stereo partly drawn) [AHA-Asp[DCM-Lys(ahLac)3]2, AHA-Asp[DCM-Lys(ah-Lac)3]2]",
,CC(=O)N[C@H]1[C@H](OCCCCCCNC(=O)CNC(=O)CN(CC(=O)NCC(=O)NCCCCCCO[C@@H]2O[C@H](CO)[C@H](O)[C@H](O)[C@H]2NC(C)=O)[C@@H](CCCCN)C(=O)NCC(=O)NCCCCCCO[C@@H]2O[C@H](CO)[C@H](O)[C@H](O)[C@H]2NC(C)=O)O[C@H](CO)[C@H](O)[C@@H]1O [DCM-Lys(GahGalNAc)3],10 times
10 nM,"CC(=O)N[C@H]1[C@H](OCCCCCCNC(=O)CC[C@H](NC(=O)[C@H](CCC(=O)NCCCCCCO[C@@H]2O[C@H](CO)[C@H](O)[C@H](O)[C@H]2NC(C)=O)NC(=O)[C@@H](N)Cc2ccc(O)cc2)C(=O)NCCCCCCO[C@@H]2O[C@H](CO)[C@H](O)[C@H](O)[C@H]2NC(C)=O)O[C@H](CO)[C@H](O)[C@@H]1O [YEE(ahGalNAc)3, reference compound]",
